Patent US20150125904A1, “PROBE INCORPORATION MEDIATED BY ENZYMES” (Massachusetts Institute of Technology, priority 2012, published 2015)
Read-outs that look alike come from different tables or passages of the source.

How the values were obtained:
W37TLplA = target: T1, W37TLplA (Escherichia coli, UniProt P32099, W38T); experiment: UPLC screening of LplA single mutants for Pacific Blue ligation; type: biochemical, E. coli; details: after 12 hours, 500 μM probe
T1 construct: His6; made in house; host or cells: E. coli (bacterial lysate, not purified)
T1 sequence (P32099 2-338 W38T): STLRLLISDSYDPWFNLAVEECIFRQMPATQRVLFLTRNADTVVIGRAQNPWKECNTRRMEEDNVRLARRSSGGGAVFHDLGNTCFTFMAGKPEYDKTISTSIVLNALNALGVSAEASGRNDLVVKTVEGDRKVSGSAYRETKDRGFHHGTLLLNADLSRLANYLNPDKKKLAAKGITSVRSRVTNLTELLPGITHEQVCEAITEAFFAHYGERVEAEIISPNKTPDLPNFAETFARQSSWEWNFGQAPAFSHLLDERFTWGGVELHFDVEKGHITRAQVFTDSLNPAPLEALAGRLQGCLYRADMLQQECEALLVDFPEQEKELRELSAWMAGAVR
Protocol: In vitro ligation reactions were assembled as described in the main text with the following modifications. 5 μL bacterial lysate containing LplA was used in place of purified enzyme. Total reaction volume was 25 μL. Instead of LAP peptide, 150 μM purified E2p protein (see Uttamapinant, et al., 2010) was used. Reactions proceeded overnight at 30° C. with 500 μM probe. Ultra Performance Liquid Chromatography (UPLC) was used to detect any product formation. All products were confirmed by in-line mass spectrometry.

[1] = cited from earlier work
W37VLplA [2] = target: T2, W37VLplA (Escherichia coli, UniProt P32099, W38V); experiment: In vitro coumarin ligation onto LAP2 (HPLC); type: biochemical, E. coli; details: 500 μM coumarin probe, 2 μM W37VLplA, 55-minute reaction
T2 sequence (P32099 2-338 W38V): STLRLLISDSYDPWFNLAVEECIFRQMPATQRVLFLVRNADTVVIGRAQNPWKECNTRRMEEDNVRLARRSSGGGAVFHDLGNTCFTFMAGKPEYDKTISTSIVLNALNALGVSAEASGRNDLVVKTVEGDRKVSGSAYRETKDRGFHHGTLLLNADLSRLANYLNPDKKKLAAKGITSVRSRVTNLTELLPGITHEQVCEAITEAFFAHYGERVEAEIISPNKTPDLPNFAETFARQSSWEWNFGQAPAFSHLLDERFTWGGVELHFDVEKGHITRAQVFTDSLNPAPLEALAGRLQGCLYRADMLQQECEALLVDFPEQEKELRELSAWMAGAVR
Protocol: Reactions were assembled as follows: 2 μM LplA enzyme, 150 μM LAP2 synthetic peptide (sequence: […]; see Puthenveetil et al., J. Am. Chem. Soc. 2009, 131 16430-16438), 500 μM 7-aminocoumarin 6 probe, 5 mM ATP, and 5 mM Mg(OAc)2 in 25 mM Na2HPO4 pH 7.2. The reaction mixture was incubated at 30° C. for 2 hours and quenched with EDTA (final concentration 100 mM). The mixture was analyzed on a Varian Prostar HPLC using a reverse-phase C18 Microsorb-MV 100 column (250×4.6 mm). Chromatograms were recorded at 210 nm. We used a 10-minute gradient of 30-60% acetonitrile in water with 0.1% trifluoroacetic acid under 1 mL/minute flow rate.
2 μM ^W37VLplA and 500 μM coumarin probe were used in one case. Aliquots from the reaction were collected and quenched with EDTA over 55 minutes. For the other case, 1 μM ^W37VLplA and 100 μM coumarin probe were used, and aliquots were collected and quenched over 70 minutes. After HPLC analysis, percent product conversions were calculated by dividing the product peak area by the sum of (product+starting material) peak areas.

[3] = Photophysical properties, pKa and pH profiles of coumarin probes; type: physicochemical; details: 150 μM solutions, pH 3-10 buffers
Protocol: Fluorescence emission was recorded for 150 μM solutions, using a TECAN Safire Microplate Reader and a plastic transparent-bottomed 384-well plate (Greiner). pH 3-6 buffers were prepared by mixing different ratios of 0.1M acetic acid and 0.1M sodium acetate-trihydrate solutions. pH 7-10 buffers were prepared by mixing different ratios of 0.1M Na2HPO4 and either 0.1M HCl (for pH 7-9 buffers) or 0.1M NaOH (for pH 10 buffer). Final pH adjustments in all buffer solutions were made by adding small amount of 1M HCl or 1M NaOH.

W37VLplA [4] = target: T2, W37VLplA; details: previously determined, cited from earlier work
Trp37→Ile LplA = Trp37→Ile LplA (Escherichia coli, UniProt P32099, W38I); details: 30 min reaction, 500 μM probe; normalized to TCO2/Trp37→Val
Chain of Trp37→Ile LplA (P32099 2-338 W38I): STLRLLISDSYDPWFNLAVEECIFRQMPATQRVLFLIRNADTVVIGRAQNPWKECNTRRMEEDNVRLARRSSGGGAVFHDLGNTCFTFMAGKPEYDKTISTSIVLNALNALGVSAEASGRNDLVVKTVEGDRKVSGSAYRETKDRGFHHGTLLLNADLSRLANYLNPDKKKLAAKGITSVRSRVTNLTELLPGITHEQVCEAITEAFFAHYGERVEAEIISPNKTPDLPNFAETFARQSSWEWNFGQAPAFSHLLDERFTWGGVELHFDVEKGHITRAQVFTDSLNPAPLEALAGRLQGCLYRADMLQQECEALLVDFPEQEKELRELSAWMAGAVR
Protocol: (§1) LplA protein was purified as previously described2 and stored at −80° C. in 20 mM Tris-HCl, pH 7.5 supplementated with 10% v/v glycerol. Reactions were quenched with 30 mM EDTA (final concentration) and resolved by HPLC (Varian ProStar) on a C-18 column using a linear gradient of 25-60% acetonitrile in H2O (with 0.1% v/v trifluoroacetic acid) over 14 minutes. Species were detected at 210 nm absorbance. Peaks corresponding to LAP and its trans-cyclooctene adducts were confirmed by ESI mass spectrometry. The extent of conversion was calculated from ratios of peak areas, neglecting minor extinction coefficient changes to LAP due to trans-cyclooctene ligation.
(§2) The relative abilities of wild-type and mutant ligases to ligate TCO1-3 onto LplA acceptor peptide (LAP) were measured by an HPLC assay after 30 min. reaction time. […] Errors, ±1 s. d.

[5] = target: Trp37→Val LplA (W37VLplA) (Escherichia coli, UniProt P32099, W38V); details: 30 min reaction, 500 μM probe; normalized to TCO2/Trp37→Val
Chain of Trp37→Val LplA (W37VLplA) (P32099 2-338 W38V): as the sequence (P32099 2-338 W38V) above
Protocol: as §1, §2

Trp37→Gly LplA = Trp37→Gly LplA (Escherichia coli, UniProt P32099, W38G); details: 30 min reaction, 500 μM probe; normalized to TCO2/Trp37→Val
Chain of Trp37→Gly LplA (P32099 2-338 W38G): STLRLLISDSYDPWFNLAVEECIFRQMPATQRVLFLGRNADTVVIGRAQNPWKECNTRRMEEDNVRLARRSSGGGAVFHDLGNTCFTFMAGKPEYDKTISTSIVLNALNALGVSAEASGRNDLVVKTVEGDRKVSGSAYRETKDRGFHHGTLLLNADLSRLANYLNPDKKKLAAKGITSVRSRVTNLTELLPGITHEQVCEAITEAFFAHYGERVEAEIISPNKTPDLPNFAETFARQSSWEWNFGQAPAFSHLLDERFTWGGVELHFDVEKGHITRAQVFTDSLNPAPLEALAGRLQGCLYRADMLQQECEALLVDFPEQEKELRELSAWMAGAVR
Protocol: as §1, §2

[6] = system: LAP-LDL receptor on HEK cells; experiment: Comparison of Diels-Alder cycloaddition, CuAAC and strain-promoted cycloaddition for cell surface fluorescence labeling; type: cell-based, human; details: 3 min staining after TCO2 ligation
Description: (A) HEK cells expressing LAP-LDL receptor and a nuclear cyan fluorescent protein transfection marker (shown in cyan, overlaid with DIC) were labeled in two steps, using three methodologies, as indicated by the scheme: Diels-Alder cycloaddition (left), CuAAC (middle), and strain-promoted cycloaddition (right). Fernandez-Suarez et al., Nature Biotechnology 2007, 25, 1483-1487. For the latter two, LAP was first derivatized with 8-azidooctanoic acid under conditions known to give quantitative yield. DIBO is dibenzylcyclooctyne. In all three cases, the second step was performed for 3 min., using the indicated Alexa 647 conjugates at the three indicated concentrations. Cells were imaged live after brief rinsing. Specific fluorescence staining with 1 μM DIBO-Alexa 647 was detectable (shown with enhanced contrast in inset). (B) Comparing cell viability after cell surface fluorescence labeling. Chinese hamster ovary cells expressing LAP-LDL receptor were labeled using Diels-Alder cycloaddition or CuAAC under the indicated conditions. Cell viability was then measured in triplicate, with untransfected and untreated cells defined as 100% viable. […]
These were previously determined, by subsequent lipoic acid pulse labeling, to give almost quantitative yield of 8-azidooctanoic acid ligation. […]

[7] = Photophysical properties of phycoerythrin and AlexaFluor 568; type: physicochemical

Question: Which “conversion to ligation product” value (W37TLplA) does the source give for “6,8-difluoro-7-hydroxycoumarin [Pacific Blue]” here?
Answer: Its value is ~50%.

Question: With `O=C(O)CCCCNC(=O)c1cc2ccc(O)cc2oc1=O` [7-hydroxycoumarin 2] as the compound, how does the emission maximum ([1]; Sun, et al.) read?
Answer: The emission maximum was 448 nm.

Question: What about the excitation maximum ([1]; Sun, et al.) of the same compound?
Answer: The excitation maximum was 386 nm.

Question: And the extinction coefficient ([1]; Sun, et al.)?
Answer: Its extinction coefficient is 36,700 M^−1 cm^−1.

Question: And the “pKa of 7-OH substituent” value [1]?
Answer: The value was 7.5.

Question: And the “LAP converted to product” value (W37VLplA [2])?
Answer: The value was 46%.

Question: What about the “pH dependence of fluorescence” value [3] of the same compound?
Answer: The value was “drops sharply at pH values <6.5”.

Question: And the Km (W37VLplA [4])?
Answer: The Km was 56 ± 20 µM.

Question: What about the kcat (W37VLplA [4]) of the same compound?
Answer: The kcat was 0.019 s⁻¹.

Question: And the kcat (W37VLplA [4]; listed as HC4)?
Answer: The kcat was 0.019 ± 0.004 s⁻¹.

Question: With `O=C(O)CCCNC(=O)OC[C@H]1[C@@H]2CC/C=C/CC[C@@H]21` [TCO3, (rel-1R,8S,9R,4E)-Bicyclo[6.1.0]non-4-ene-9-ylmethyl-N-butyric acid carbamate] as the compound, how does the “Ligation efficiency (average, normalized product percentage), Trp37→Ile” value (Trp37→Ile LplA) read?
Answer: Its value is 6.0 ± 0.6%.

Question: What about the “Ligation efficiency (average, normalized product percentage), Trp37→Val” value [5] of the same compound?
Answer: The value was 6.6 ± 0.6%.

Question: What about the “Ligation efficiency (average, normalized product percentage), Trp37→Gly” value (Trp37→Gly LplA) of the same compound?
Answer: The value was 22.6 ± 2.0%.

Question: With “Aminobenzyltetrazine Alexa Fluor 647 [Tz1-Alexa 647]” as the compound, how does the “dye concentration giving specific signal” value [6] read?
Answer: The value was 10 nM.

Question: For R-phycoerythrin, which “brightness relative to AlexaFluor 568” value [7] is on record?
Answer: The value was > 25 times.
